Earlier results, collected in patent US20070196518A1, “Composition and Method for Mitigating a Negative Effect of Alcohol Consumption” (priority 2005, published 2007).

Conditions: on average, in subjects who consumed alcohol

SMILES: Cc1ncc(CO)c(CO)c1O [Vitamin B6, Pyridoxine]
- decrease in the number of hangover symptoms: 50%
